Where “and” joins values, the source holds several entries; their conditions need not be identical. Equal values may be shown once.
Target: T1, CHK1 (Homo sapiens, UniProt O14757)
T1 sequence (O14757 1-476): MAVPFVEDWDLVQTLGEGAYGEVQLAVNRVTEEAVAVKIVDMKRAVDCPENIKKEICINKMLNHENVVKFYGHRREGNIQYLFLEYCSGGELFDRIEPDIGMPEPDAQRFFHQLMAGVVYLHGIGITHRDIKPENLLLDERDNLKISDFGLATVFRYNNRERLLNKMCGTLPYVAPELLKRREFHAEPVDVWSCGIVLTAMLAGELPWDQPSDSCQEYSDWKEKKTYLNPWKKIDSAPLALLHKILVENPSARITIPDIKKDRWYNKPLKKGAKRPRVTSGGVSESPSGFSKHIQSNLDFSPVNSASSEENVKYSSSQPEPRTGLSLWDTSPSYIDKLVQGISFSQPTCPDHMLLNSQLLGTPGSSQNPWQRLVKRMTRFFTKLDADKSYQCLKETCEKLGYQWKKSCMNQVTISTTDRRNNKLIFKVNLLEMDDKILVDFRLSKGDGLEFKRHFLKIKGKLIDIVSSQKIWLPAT
Assay: CHK1 kinase function inhibition assay (DELFIA, phosphorylation of a CDC25C peptide)
Type: biochemical
Details: CHK1 1 nM, ATP 30 μM, 30 minutes at room temperature
Description: Measurement of Inhibition of CHK1 Kinase Function
CHK1 kinase function was measured in a DELFIA® assay in order to monitor phosphorylation of a CDC25C peptide using a specific phospho antibody.
The reaction mixture was incubated for 30 minutes at room temperature and then stopped by the addition of buffer (125 μL) containing 40 mM EDTA, 0.05% Tween 20, 0.1% BSA in TBS (10× concentrate, Sigma). An aliquot (100 μL) of the stopped reaction mixture was transferred to a black neutravidin-coated plate (Perbio) and incubated for 1 hour on a shaker (Titertek, Flow Laboratories) at room temperature. […] The plates were washed a further four times with wash buffer before the addition of enhancement solution (100 μL/well, PerkinElmer Life Sciences).

First: COC(=O)c1cnc(Nc2cnc(C#N)cn2)cc1NC1CCCNCC1 (stereo not shown) [Compound Y-076, Methyl 4-(azepan-4-ylamino)-6-(5-cyanopyrazin-2-ylamino)nicotinate]
Second: N#Cc1cnc(Nc2cc(NC3CCCCC3)c(N)cn2)cn1 [Compound Y-045, 5-(5-Amino-4-(cyclohexylamino)pyridin-2-ylamino)pyrazine-2-carbonitrile]
The IC50 of the first is lower: ≤ 100 nM for the first, 1000 to 10000 nM for the second.

`COc1ccccc1NC(=O)c1cnc(Nc2cnc(C#N)cn2)cc1NCC1CCNCC1` [Compound Y-097, 6-(5-Cyanopyrazin-2-ylamino)-N-(2-methoxyphenyl)-4-(piperidin-4-ylmethylamino)nicotinamide] and `COCCNC(=O)c1cnc(Nc2cnc(C#N)cn2)cc1NCC1CCNCC1` [Compound Y-084, 6-(5-Cyanopyrazin-2-ylamino)-N-(2-methoxyethyl)-4-(piperidin-4-ylmethylamino)nicotinamide] cannot be ordered by IC50: 100 to 1000 nM for the first, ≤ 100 nM for the second.

`COc1ccc(-c2cnc(Nc3cnc(C#N)cn3)cc2NC2CCN(C)CC2)cc1` [Compound Y-114, 5-(5-(4-methoxyphenyl)-4-(1-methylpiperidin-4-ylamino)pyridin-2-ylamino)pyrazine-2-carbonitrile] and `CN1CCC(Nc2cc(Nc3cnc(C#N)cn3)ncc2-c2ccc(N3CCOCC3)cc2)CC1` [Compound Y-120, 5-(4-(1-Methylpiperidin-4-ylamino)-5-(4-morpholinophenyl)pyridin-2-ylamino)pyrazine-2-carbonitrile] cannot be ordered by IC50: ≤ 100 nM for the first, ≤ 100 nM for the second.

Compared with `CN1CCC(Nc2cc(Nc3cnc(C#N)cn3)ncc2N)CC1` [Compound Y-007, 5-(5-Amino-4-(1-methylpiperidin-4-ylamino)pyridin-2-ylamino)pyrazine-2-carbonitrile], `CN1C2CCC1CC(Nc1cc(Nc3cnc(C#N)cn3)ncc1N)C2` (stereo not shown) [Compound Y-006, 5-(5-Amino-4-(8-methyl-8-aza-bicyclo[3.2.1]octan-3-ylamino)-pyridin-2-ylamino)pyrazine-2-carbonitrile] is higher in IC50: ≤ 100 nM for the first, 1000 to 10000 nM for the second.

First: COC(=O)c1cnc(Nc2cnc(C#N)cn2)cc1N[C@H]1CC2CC[C@H](C1)N2C(=O)OC(C)(C)C (stereo in doubt) [Compound Y-074, (1R,5R)-tert-Butyl 3-(2-(5-cyanopyrazin-2-ylamino)-5-(methoxycarbonyl)pyridin-4-ylamino)-8-azabicyclo[3.2.1]octane-8-carboxylate]
Second: COC(=O)c1cnc(Nc2cnc(C#N)cn2)cc1NC1C[C@H]2CC[C@@H](C1)N2Cc1ccccc1 (stereo partly drawn) [Compound Y-029, Methyl 4-((1R,3s,5S)-8-benzyl-8-azabicyclo[3.2.1]octan-3-ylamino)-6-(5-cyanopyrazin-2-ylamino)nicotinate]
The IC50 of the first is higher: 1000 to 10000 nM for the first, ≤ 100 nM for the second.

`N#Cc1cnc(Nc2cc(NCC3CCCNC3)c(-n3ccc(CO)c3)cn2)cn1` (stereo not shown) [Compound Y-063, 5-(5-(3-(Hydroxymethyl)-1H-pyrrol-1-yl)-4-(piperidin-3-ylmethylamino)pyridin-2-ylamino)pyrazine-2-carbonitrile] and `N#Cc1cnc(Nc2cc(NCC3CCCNC3)c(-n3ccc(C(=O)O)c3)cn2)cn1` (stereo not shown) [Compound Y-065, 1-(6-(5-Cyanopyrazin-2-ylamino)-4-(piperidin-3-ylmethylamino)pyridin-3-yl)-1H-pyrrole-3-carboxylic acid] cannot be ordered by IC50: ≤ 100 nM for the first, 100 to 1000 nM for the second.

`N#Cc1cnc(Nc2cc(OCC3CCOCC3)c(NC(=O)CCC3CCNCC3)cn2)cn1` [Compound Y-069, N-(6-(5-Cyanopyrazin-2-ylamino)-4-((tetrahydro-2H-pyran-4-yl)methoxy)pyridin-3-yl)-3-(piperidin-4-yl)propanamide] and `CN(C)CC(=O)Nc1cnc(Nc2cnc(C#N)cn2)cc1OCC1CCNCC1` [Compound Y-039, N-(6-(5-Cyanopyrazin-2-ylamino)-4-(piperidin-4-ylmethoxy)pyridin-3-yl)-2-(dimethylamino)acetamide] fall in the same range of IC50: 1000 to 10000 nM for the first, 1000 to 10000 nM for the second.

`COCCOc1ccc(-c2cnc(Nc3cnc(C#N)cn3)cc2NC[C@@H]2CNCCO2)cc1` [Compound Y-149, (S)-5-(5-(4-(2-Methoxyethoxy)phenyl)-4-(morpholin-2-ylmethylamino)pyridin-2-ylamino)pyrazine-2-carbonitrile] and `N#Cc1cnc(Nc2cc(NCC3CCNCC3)c(-c3ccc(OCCO)cc3)cn2)cn1` [Compound Y-129, 5-(5-(4-(2-hydroxyethoxy)phenyl)-4-(piperidin-4-ylmethylamino)pyridin-2-ylamino)pyrazine-2-carbonitrile] cannot be ordered by IC50: ≤ 100 nM for the first, ≤ 100 nM for the second.

`NCCCNc1cc(Nc2cnccn2)ncn1` [Compound Z-005, N-(3-Aminopropyl)-A-pyrazin-2-ylpyrimidine-4,6-diamine] and `NCCCCNc1cc(Nc2cnccn2)ncn1` [Compound Z-006, N-(4-Aminobutyl)-N′-pyrazin-2-ylpyrimidine-4,6-diamine] fall in the same range of IC50: 1000 to 10000 nM for the first, 1000 to 10000 nM for the second.

`COC(=O)c1cnc(Nc2cnc(OC)cn2)cc1NCC1CNCCO1` (stereo not shown) [Compound Y-106, Methyl 6-(5-methoxypyrazin-2-ylamino)-4-(morpholin-2-ylmethylamino)nicotinate] and `COCC#Cc1cnc(Nc2cnc(C#N)cn2)cc1NC[C@@H]1CNCCO1` [Compound Y-154, (S)-5-(5-(3-Methoxyprop-1-ynyl)-4-(morpholin-2-ylmethylamino)pyridin-2-ylamino)pyrazine-2-carbonitrile] cannot be ordered by IC50: 100 to 1000 nM for the first, ≤ 100 nM for the second.

`N#Cc1cnc(Nc2cc(NCCC3CNCCO3)c(-c3ccccc3)cn2)cn1` (stereo not shown) [Compound Y-138, 5-(4-(2-(Morpholin-2-yl)ethylamino)-5-phenylpyridin-2-ylamino)pyrazine-2-carbonitrile] and `COCCCc1cnc(Nc2cnc(C#N)cn2)cc1NC[C@H]1CNCCO1` [Compound Y-159, (R)-5-(5-(3-Methoxypropyl)-4-(morpholin-2-ylmethylamino)pyridin-2-ylamino)pyrazine-2-carbonitrile] cannot be ordered by IC50: ≤ 100 nM for the first, ≤ 100 nM for the second.

`COCc1ccc(-c2cnc(Nc3cnc(C#N)cn3)cc2NCC2CCNCC2)cc1` [Compound Y-127, 5-(5-(4-(Methoxymethyl)phenyl)-4-(piperidin-4-ylmethylamino)pyridin-2-ylamino)pyrazine-2-carbonitrile] and `N#Cc1cnc(Nc2cc(NCC3CCNCC3)c(-c3ccc4c(c3)OCCO4)cn2)cn1` [Compound Y-134, 5-(5-(2,3-Dihydrobenzo[b][1,4]dioxin-6-yl)-4-(piperidin-4-ylmethylamino)pyridin-2-ylamino)pyrazine-2-carbonitrile] cannot be ordered by IC50: ≤ 100 nM for the first, 100 to 1000 nM for the second.

Compared with `c1cnc(Nc2cc(NCC3CCNCC3)ncn2)cn1` [Compound Z-004, N-(Piperidin-4-ylmethyl)-W-pyrazin-2-ylpyrimidine-4,6-diamine], `N#Cc1cnc(Nc2cc(NCC3CCCNC3)c(N)cn2)cn1` (stereo not shown) [Compound Y-041, 5-(5-Amino-4-(piperidin-3-ylmethylamino)pyridin-2-ylamino)pyrazine-2-carbonitrile] is lower in IC50: 1000 to 10000 nM for the first, ≤ 100 nM for the second.

`COC(C)(C)C#Cc1cnc(Nc2cnc(C#N)cn2)cc1NC[C@@H]1CNCCO1` [Compound Y-155, (S)-5-(5-(3-Methoxy-3-methylbut-1-ynyl)-4-(morpholin-2-ylmethylamino)pyridin-2-ylamino)pyrazine-2-carbonitrile] and `CN1CCC(N(C)c2cc(Nc3cnc(C#N)cn3)ncc2Cl)CC1` [Compound Y-109, 5-(5-Chloro-4-(methyl(1-methylpiperidin-4-yl)amino)pyridin-2-ylamino)pyrazine-2-carbonitrile] cannot be ordered by IC50: ≤ 100 nM for the first, 100 to 1000 nM for the second.

With `COC(=O)c1cnc(Nc2cnc(C#N)cn2)cc1N[C@H]1CCN[C@H](C(=O)Nc2ccccc2)C1` [Compound Y-028, Methyl 6-(5-cyanopyrazin-2-ylamino)-4-((2S,4S)-2-(phenylcarbamoyl)piperidin-4-ylamino)nicotinate] the IC50 was ≤ 1000 nM and 100 to 1000 nM.
With `N#Cc1cnc(Nc2cc(NCC3CCCNC3)ncn2)cn1` (stereo not shown) [Compound Z-022, 5-(6-(Piperidin-3-ylmethylamino)pyrimidin-4-ylamino)pyrazine-2-carbonitrile] the IC50 was ≤ 1000 nM and 100 to 1000 nM.
In the case of `COC(=O)c1cnc(Nc2cnc(C#N)cn2)cc1NC1CC(C)(C)N(C)C(C)(C)C1` [Compound Y-024, Methyl 6-(5-cyanopyrazin-2-ylamino)-4-(1,2,2,6,6-pentamethylpiperidin-4-ylamino)nicotinate], the IC50 is reported as ≤ 1000 nM and 100 to 1000 nM.
With `N#Cc1cnc(Nc2cc(NCC3CCNCC3)c(N)cn2)cn1` [Compound Y-001, 5-(5-Amino-4-(piperidin-4-ylmethylamino)pyridin-2-ylamino)pyrazine-2-carbonitrile] the IC50 was ≤ 1000 nM and 100 to 1000 nM.
For `CCNC(=O)c1cnc(Nc2cnc(C#N)cn2)cc1NC1CC2CCC(C1)N2C` (stereo not shown) [Compound Y-034, 6-(5-Cyanopyrazin-2-ylamino)-N-ethyl-4-(8-methyl-8-azabicyclo[3.2.1]octan-3-ylamino)nicotinamide], the IC50 was ≤ 1000 nM and 100 to 1000 nM.
`COC(=O)c1cnc(Nc2cnc(C)cn2)cc1NCC1CCNCC1` [Compound Y-036, Methyl 6-(5-methylpyrazin-2-ylamino)-4-(piperidin-4-ylmethylamino)nicotinate] was tested, and the IC50 was ≤ 1000 nM and 100 to 1000 nM.

From US8367658B2, “Pyrazin-2-yl-pyridin-2-yl-amine and pyrazin-2-yl-pyrimidin-4-yl-amine compounds and their use” (Cancer Research Technology Limited, priority 2007, dated 2013)
